According to US20210292340A1, “CELL NECROSIS INHIBITOR, PREPARATION METHOD THEREFOR AND USE THEREOF” (SHANGHAI INSTITUTE OF ORGANIC CHEMISTRY, CHINESE ACADEMY OF …, priority 2018, published 2021):

Tested on: Jurkat (FADD−/−) cells
Assay: Inhibition of TNF-induced programmed Jurkat (FADD−/−) cell necrosis (Cell Titer-Glo)
Assay type: cell-based, human
Settings: Homo sapiens, Jurkat, 20 h, TNF 10 ng/mL, intracellular ATP level, read-out: Cellular IC50 (M) Jurkat (FADD−/−)
Experimental: Two replicate wells were set for each concentration of each compound.
Jurkat (FADD^−/−) cells (human-derived peripheral blood leukemia T cell line, with FADD gene knocked out) were cultured in vitro. After growing to logarithmic growth phase, the cells were harvested, and centrifuged at 1000 rpm for 5 min. The supernatant was discarded, and the cells were resuspended in fresh medium and adjusted to a cell density of 5×10^5/mL. The cell suspension was added to the culture plate containing the drug (40 μL per well). In the treatment groups, 10 μL of TNF (tumor necrosis factor, final concentration 10 ng/mL) diluted with the cell culture medium was added to each well, and incubated for 20 h in a cell incubator (37° C., 5% CO2). Subsequently, 50 μL of Cell Titer-Glo solution was added to each well and incubated at room temperature for 10 min. Then, the luminescence was detected on BioTek plate reader to measure the intracellular ATP level. The effect of the test compounds in inhibiting TNF-induced cell necrosis was calculated from the full-activity well and background well (with the untreated DMSO control well as 100% cell viability), and the half inhibitory concentration (IC50) of the compound was calculated by Graphpad Prism statistical software.

SMILES: CN1C(=O)[C@@H](NC(=O)c2ccc(Oc3ccccc3)cn2)COc2ccc3ncccc3c21 [RIP1-196]
- IC50: > 2e-05 M

SMILES: CN1C(=O)[C@@H](NC(=O)c2cn(Cc3ccccc3)nn2)COc2cc3nccnc3cc21 [RIP1-130]
- IC50: 5.43e-08 M

SMILES: CN1C(=O)[C@@H](NC(=O)c2cn(Cc3ccccc3)cn2)CSc2cc3[nH]nc(Cl)c3cc21 [RIP1-028]
- IC50: 7e-11 M

SMILES: CN1C(=O)[C@@H](NC(=O)c2n[nH]c(Cc3ccccc3)n2)CSc2cc3[nH]ccc3cc21 [RIP1-001]
- IC50: 1.38e-09 M

SMILES: COc1ncnc2cc3c(cc12)N(C)C(=O)[C@@H](NC(=O)c1n[nH]c(Cc2cccc(F)c2)n1)CO3 [RIP1-159]
- IC50: 8.7e-09 M

SMILES: CN1C(=O)[C@@H](NC(=O)c2nnc(Cc3ccccc3)[nH]2)COc2cc3[nH]ncc3cc21 [RIP1-023]
- IC50: 2.54e-09 M

SMILES: Cc1nc2cc3c(cc2[nH]1)OC[C@H](NC(=O)c1nnc(Cc2ccccc2)o1)C(=O)N3C [RIP1-070]
- IC50: 2.15e-06 M

SMILES: CN1C(=O)[C@@H](NC(=O)c2n[nH]c(Cc3cccc(F)c3)n2)COc2cc3nccnc3cc21 [RIP1-209]
- IC50: 1.92e-09 M

SMILES: CN1C(=O)[C@@H](NC(=O)c2nnn(Cc3ccccc3)n2)COc2cc3[nH]c(=O)[nH]c3cc21 [RIP1-075]
- IC50: 4.73e-10 M

SMILES: CN1C(=O)[C@@H](NC(=O)c2cn(Cc3ccccc3)cn2)COc2cc3nccnc3cc21 [RIP1-129]
- IC50: 7.94e-07 M

SMILES: CN1C(=O)[C@@H](NC(=O)c2cc(Cc3ccccc3)on2)COc2cc3[nH]ccc3cc21 [RIP1-116]
- IC50: 5.16e-09 M

SMILES: CN1C(=O)[C@@H](NC(=O)c2cncn2Cc2ccccc2)CSc2cc3[nH]ccc3cc21 [RIP1-005]
- IC50: > 2e-06 M

SMILES: CN1C(=O)[C@@H](NC(=O)c2nnc(Cc3ccccc3F)[nH]2)COc2cc3ocnc3cc21 [RIP1-219]
- IC50: 6.75e-10 M

SMILES: CN1C(=O)[C@@H](NC(=O)c2n[nH]c(Cc3ccccc3)n2)COc2cc3ncoc3cc21 [RIP1-182]
- IC50: 8.16e-10 M

SMILES: CN1C(=O)[C@@H](NC(=O)c2nnc(Cc3ccccc3)[nH]2)CSc2cc3occc3cc21 [RIP1-039]
- IC50: 4.5e-10 M

SMILES: CN1C(=O)[C@@H](NC(=O)c2cc(Oc3c(F)cccc3F)ccn2)COc2ccc3ncccc3c21 [RIP1-198]
- IC50: 4.57e-09 M

SMILES: CN1C(=O)[C@@H](NC(=O)c2nnc(Cc3ccccc3)[nH]2)COc2cc3[nH]ccc3cc21 [RIP1-112]
- IC50: 1.22e-09 M

SMILES: Cc1ccc(Cc2cc(C(=O)N[C@H]3CSc4cc5c(ccn5C)cc4N(C)C3=O)nn2C)cc1 [RIP1-056]
- IC50: 4.15e-08 M

SMILES: CN1C(=O)[C@@H](NC(=O)c2n[nH]c(Cc3cccc(F)c3)n2)COc2ccc3ncccc3c21 [RIP1-172]
- IC50: 5e-09 M

SMILES: CN1C(=O)[C@@H](NC(=O)c2cn(Cc3ccccc3)cn2)CSc2ccc3cnccc3c21 [RIP1-104]
- IC50: 7.4e-10 M

SMILES: CN1C(=O)[C@@H](NC(=O)c2cc(Cc3ccccc3)on2)CSc2ccc3cnccc3c21 [RIP1-106]
- IC50: 7.47e-10 M

SMILES: CN1C(=O)[C@@H](NC(=O)c2cn(Cc3ccccc3)cn2)CSc2cc3[nH]ccc3cc21 [RIP1-006]
- IC50: 1.25e-09 M

SMILES: CN1C(=O)[C@@H](NC(=O)c2cc(Oc3cccc(F)c3)ccn2)COc2ccc3ncccc3c21 [RIP1-204]
- IC50: 3.04e-09 M

SMILES: CN1C(=O)[C@@H](NC(=O)c2cnc(Cc3ccccc3)o2)CSc2cc3c(ccn3Cc3ccccc3)cc21 [RIP1-087]
- IC50: > 2e-06 M

SMILES: CN1C(=O)[C@@H](NC(=O)c2cc(Cc3ccccc3)on2)CSc2cc3[nH]nc(Cl)c3cc21 [RIP1-029]
- IC50: 1.2e-10 M

SMILES: CN1C(=O)[C@@H](NC(=O)c2nc(Cc3ccccc3)n(C)n2)COc2cc3ncoc3cc21 [RIP1-220]
- IC50: > 2e-05 M

SMILES: CN1C(=O)[C@@H](NC(=O)c2cn(Cc3ccccc3)cn2)CSc2cc3c(ccn3C)cc21 [RIP1-055]
- IC50: 2.29e-09 M

SMILES: CN1C(=O)[C@@H](NC(=O)c2cn(Cc3ccccc3)cn2)CSc2cc3occc3cc21 [RIP1-036]
- IC50: 1.8e-10 M

SMILES: CN1C(=O)[C@@H](NC(=O)c2cc(Cc3ccccc3)on2)CSc2cc3occc3cc21 [RIP1-038]
- IC50: 1.29e-10 M

SMILES: CC(=O)n1ncc2cc3c(cc21)SC[C@H](NC(=O)c1cc(Cc2ccccc2)on1)C(=O)N3C [RIP1-018]
- IC50: 2.7e-10 M

SMILES: CN1C(=O)[C@@H](NC(=O)c2cnnn2Cc2ccccc2)CSc2cc3[nH]ccc3cc21 [RIP1-051]
- IC50: > 2e-06 M

SMILES: CN1C(=O)[C@@H](NC(=O)c2nnc(Cc3ccccc3)[nH]2)CSc2ccc3ncccc3c21 [RIP1-092]
- IC50: 1.05e-09 M

SMILES: CN1C(=O)[C@@H](NC(=O)c2ncn(Cc3ccccc3)n2)CSc2cc3[nH]ncc3cc21 [RIP1-020]
- IC50: 2.3e-10 M

SMILES: CN1C(=O)[C@@H](NC(=O)c2cn(Cc3ccccc3)nn2)CSc2ccc3ncccc3c21 [RIP1-095]
- IC50: 9.85e-09 M

SMILES: CN1C(=O)[C@@H](NC(=O)c2ccc(Nc3ccccc3)cn2)COc2ccc3ncccc3c21 [RIP1-201]
- IC50: > 2e-05 M

SMILES: Cc1ccc(Cc2cc(C(=O)N[C@H]3CSc4cc5c(ccn5C)cc4N(C)C3=O)n(C)n2)cc1 [RIP1-057]
- IC50: > 2e-06 M

SMILES: CN1C(=O)[C@@H](NC(=O)c2cn(Cc3ccccc3)nn2)CSc2ccc3cnccc3c21 [RIP1-105]
- IC50: 3.22e-09 M

SMILES: CN1C(=O)[C@@H](NC(=O)c2cc(Cc3ccccc3)on2)COc2cc3[nH]c(C(F)(F)F)nc3cc21 [RIP1-077]
- IC50: 1.68e-08 M

SMILES: CN1C(=O)[C@@H](NC(=O)c2cc(Oc3ccccc3)ccn2)COc2cc3[nH]ncc3cc21 [RIP1-190]
- IC50: 1.44e-10 M

SMILES: CN1C(=O)[C@@H](NC(=O)c2cn(Cc3ccccc3)nn2)COc2cc3[nH]ncc3cc21 [RIP1-024]
- IC50: 2.03e-09 M

SMILES: Cc1ccc(Cc2cc(C(=O)N[C@H]3COc4cc5occc5cc4N(C)C3=O)nn2C)cc1 [RIP1-124]
- IC50: 2.09e-08 M

SMILES: CN1C(=O)[C@@H](NC(=O)c2cnc(Cc3ccccc3)[nH]2)CSc2cc3c(ccn3C)cc21 [RIP1-050]
- IC50: 4.92e-07 M

SMILES: CN1C(=O)[C@@H](NC(=O)c2cccc(Cc3ccccc3)c2)CSc2cc3[nH]ccc3cc21 [RIP1-007]
- IC50: 3.4e-07 M

SMILES: CN1C(=O)[C@@H](NC(=O)c2n[nH]c(Cc3c(F)cc(F)cc3F)n2)COc2ccc3ncccc3c21 [RIP1-169]
- IC50: 1.13e-07 M

SMILES: CN1C(=O)[C@@H](NC(=O)c2n[nH]c(Cc3c(F)cccc3F)n2)COc2ccc3cnccc3c21 [RIP1-161]
- IC50: 8.6e-09 M

SMILES: CN1C(=O)[C@@H](NC(=O)c2nnc(Cc3ccccc3)[nH]2)CSc2ccc3cnccc3c21 [RIP1-102]
- IC50: 9e-10 M

SMILES: CN1C(=O)[C@@H](NC(=O)c2n[nH]c(Cc3ccc(F)cc3)n2)COc2cc3nccnc3cc21 [RIP1-207]
- IC50: 4.88e-09 M

SMILES: CN1C(=O)[C@@H](NC(=O)c2cc(Oc3ccc(F)cc3)ccn2)COc2ccc3ncccc3c21 [RIP1-197]
- IC50: 2.92e-08 M

SMILES: CN1C(=O)[C@@H](NC(=O)c2ncn(Cc3ccccc3)n2)COc2cc3[nH]ccc3cc21 [RIP1-113]
- IC50: 3.07e-10 M

SMILES: CN1C(=O)[C@@H](NC(=O)c2cc(Oc3cccnc3)ccn2)COc2cc3ncoc3cc21 [RIP1-212]
- IC50: 1.81e-08 M

SMILES: CN1C(=O)[C@@H](NC(=O)c2ncn(Cc3ccccc3)n2)CSc2cc3c(ccn3C)cc21 [RIP1-012]
- IC50: 1.22e-09 M

SMILES: CN1C(=O)[C@@H](NC(=O)c2nccc(Oc3ccccc3)n2)COc2cc3ncoc3cc21 [RIP1-213]
- IC50: 7.68e-08 M

SMILES: CN1C(=O)[C@@H](NC(=O)c2n[nH]c(Cc3ccc(F)cc3)n2)COc2cc3[nH]nnc3cc21 [RIP1-167]
- IC50: 1.6e-06 M

SMILES: CN1C(=O)[C@@H](NC(=O)c2ccnc(Nc3ccccc3)n2)COc2ccc3ncccc3c21 [RIP1-202]
- IC50: > 2e-05 M

SMILES: CN1C(=O)[C@@H](NC(=O)c2cnn(Cc3ccccc3)c2)CSc2cc3c(ccn3Cc3ccccc3)cc21 [RIP1-083]
- IC50: > 2e-06 M

SMILES: CN1C(=O)[C@@H](NC(=O)c2nnc(Oc3ccccc3)[nH]2)COc2cc3ncoc3cc21 [RIP1-211]
- IC50: 2.72e-07 M

SMILES: CN1C(=O)[C@@H](NC(=O)c2cnc(Cc3ccccc3)o2)COc2cc3[nH]c(C(F)(F)F)nc3cc21 [RIP1-079]
- IC50: > 2e-06 M

SMILES: Cc1ccc(Cc2cc(C(=O)N[C@H]3COc4cc5[nH]nnc5cc4N(C)C3=O)nn2C)cc1 [RIP1-141]
- IC50: 2.19e-08 M

SMILES: CN1C(=O)[C@@H](NC(=O)c2cn(Cc3ccccc3)nn2)CSc2cc3occc3cc21 [RIP1-040]
- IC50: 3.6e-10 M

SMILES: CN1C(=O)[C@@H](NC(=O)c2ccnc(Oc3ccccc3)c2)COc2ccc3ncccc3c21 [RIP1-195]
- IC50: 5.66e-06 M

SMILES: CN1C(=O)[C@@H](NC(=O)c2cc(Oc3ccccc3)ccn2)COc2cc3occc3cc21 [RIP1-180]
- IC50: 2.66e-10 M

SMILES: CN1C(=O)[C@@H](NC(=O)c2n[nH]c(Cc3ccccc3)n2)CSc2cc3[nH]ncc3cc21 [RIP1-013]
- IC50: 5.3e-10 M

SMILES: CN1C(=O)[C@@H](NC(=O)c2nnc(Cc3ccccc3)[nH]2)COc2cc3[nH]nnc3cc21 [RIP1-143]
- IC50: 2.06e-07 M

SMILES: Cc1nc2cc3c(cc2[nH]1)OC[C@H](NC(=O)c1cn(Cc2ccccc2)nn1)C(=O)N3C [RIP1-063]
- IC50: 4.57e-08 M

SMILES: CN1C(=O)[C@@H](NC(=O)c2cn(Cc3ccccc3)cn2)COc2cc3[nH]ncc3cc21 [RIP1-022]
- IC50: 5.66e-10 M

SMILES: CN1C(=O)[C@@H](NC(=O)c2ncn(Cc3ccccc3)n2)CSc2cc3[nH]ccc3cc21 [RIP1-008]
- IC50: 2.4e-10 M

SMILES: CN1C(=O)[C@@H](NC(=O)c2cn(Cc3ccccc3)cn2)CSc2cc3[nH]ncc3cc21 [RIP1-016]
- IC50: 2.3e-10 M

SMILES: COc1ncnc2cc3c(cc12)N(C)C(=O)[C@@H](NC(=O)c1n[nH]c(Cc2c(F)cccc2F)n1)CO3 [RIP1-156]
- IC50: 2.8e-08 M

SMILES: CN1C(=O)[C@@H](NC(=O)c2ncn(Cc3ccccc3)n2)CSc2cc3[nH]nc(Cl)c3cc21 [RIP1-026]
- IC50: 2.8e-10 M

SMILES: CN1C(=O)[C@@H](NC(=O)c2ncn(Cc3ccccc3)n2)COc2cc3[nH]ncc3cc21 [RIP1-025]
- IC50: 2.86e-10 M

SMILES: CN1C(=O)[C@@H](NC(=O)c2n[nH]c(Cc3c(F)cc(F)cc3F)n2)COc2cc3occc3cc21 [RIP1-173]
- IC50: 7e-08 M
